# Data: US20250186445A1, “TREATMENT OF CANCER WITH MENIN INHIBITORS AND IMMUNO-ONCOLOGY AGENTS” (University Health Network, priority 2022, published 2025)
# Entries after “also recorded” stand apart in the source; their conditions may differ.
# Key:
# CT26 cells = assay: Cytokine gene expression in CT26 cells in 2D culture treated with Compound I; type: cell-based, mouse; conditions: FIG. 5A
# MC38 cells = assay: Cytokine gene expression in MC38 cells in 2D culture treated with Compound I; type: cell-based; conditions: FIG. 5B
# [1] = test system: CT26 colorectal carcinomas; assay: CT26 colorectal carcinoma tumor growth in immunocompetent (BALB/c) mice; type: in vivo, mouse
# Excerpt: Effects of Compound I in combination with PD-L1/PD-1 immune checkpoint blockade on tumor growth were investigated in CT26 tumors.
smiles,measurement,setting,value
CNc1nc(NC2CCN(Cc3ccc4c(cc(C#N)n4C[C@H](C)N4CCN(S(C)(=O)=O)CC4)c3C)CC2)c2cc(CC(F)(F)F)sc2n1 [Compound I],"induction of cytokine-related genes (IL33, CXCL10, CXCL9, CD40, CCL4)",CT26 cells,Dose-dependent induction; also recorded: induces cytokine gene expression
same,cytokine gene expression,MC38 cells,induces cytokine gene expression
same,tumor growth,"[1]; BALB/c mice bearing CT26, 100 mg/kg orally QD, FIG. 6A",reduced tumor growth
same,CD8+ T-cell infiltration,"[1]; CT26 tumors in BALB/c mice, FIGS. 6B-C",increased CD8+ T-cell infiltration
same,reduction in tumor growth with concomitant anti-CD8 antibody,"[1]; CT26 tumors in BALB/c mice, concomitant anti-CD8 antibody, FIG. 6D",could be blocked
same,"CT26 tumor growth, combination of Compound I and anti-PD-1 antibody","[1]; CT26 tumors, combination with anti-PD-1 antibody, FIG. 7",the combination enhanced the activity of anti-PD1 immunotherapy
same,"CT26 tumor growth, single agent","[1]; CT26 tumors, each agent alone, FIG. 7",substantially reduced
